# Patent publication US11447490B2, “Aromatic heterocyclic substituted olefin compound, preparation method for same, pharmaceutical composition of same, and applications thereof” (SHANGHAI YINGLI PHARMACEUTICAL CO., LTD, priority 2018, dated 2022)
# Biological target: ALK5 (Homo sapiens (Human), UniProt P36897)
# Assay: Evaluation experiment of ALK5 enzyme activity inhibition IC50 (ADP-Glo kinase assay)
# Assay type: biochemical
# Conditions: not given
# Procedure: 1. Preparation of a 1× kinase buffer: 40 mM Tris (pH 7.5), 20 mM MgCl2, 0.10% BSA, 1 mM DTT.
# 2. Compound preparation: The final detection concentration of the compound was 10 μM, which was prepared to a 100-fold concentration, i.e., 1 mM. 100 μL of the 100-fold compound was added in the second well of the 384-well plate, and 60 μL of 100% DMSO was added to the other wells. […] 50 nL of the compound was transferred to the reaction plate with echo.
# 3. Kinase reaction: The kinase was added to a 1× kinase buffer to form a 2× enzyme solution. […] The polypeptide TGFbR1 (purchased from Signal Chem, catalog number T36-58) and ATP were added to a 1× kinase buffer to form a 2× substrate solution. The final concentration of the substrate solution was peptide TGFbR1 0.1 mg/mL, ATP 7 μM. 2.5 μL of the 2× enzyme solution was added to the 384-well reaction plate (there was already 50 nL of 100% DMSO dissolved compound), and a 1× kinase buffer was added to a negative control well. The reaction solution was incubated at room temperature for 10 minutes. 2.5 μL of 2× substrate solution was added to the 384-well reaction plate. The 384-well plate was covered and incubated at 30° C. for 1 hour. ADP-Glo reagent (purchased from Promege, catalog number v9102) was equilibrated to room temperature. 5 μL of ADP-Glo reagent was transferred to the reaction well of the 384-well plate to stop the reaction.
# 4. Detection of reaction results: 10 μL of kinase detection reagent was transferred to each well, shaken for 1 minute, and let stand at room temperature for 30 minutes. The sample luminescence value was read at Synegy.
# 5. Curve fitting: The data of the luminescence reading were copied from the Synegy program. The value of the luminescence reading was converted to inhibition percentage by a formula (inhibition percentage=(max−sample RLU)/(max−min)×100, where “min” was a fluorescence reading for a control sample without enzyme; “max” was a fluorescence reading for a sample with DMSO as a control). The data were imported into MS Excel and GraphPad Prism was used for curve fitting. IC50 value was calculated.
# ALK5, sequence (P36897 34-503): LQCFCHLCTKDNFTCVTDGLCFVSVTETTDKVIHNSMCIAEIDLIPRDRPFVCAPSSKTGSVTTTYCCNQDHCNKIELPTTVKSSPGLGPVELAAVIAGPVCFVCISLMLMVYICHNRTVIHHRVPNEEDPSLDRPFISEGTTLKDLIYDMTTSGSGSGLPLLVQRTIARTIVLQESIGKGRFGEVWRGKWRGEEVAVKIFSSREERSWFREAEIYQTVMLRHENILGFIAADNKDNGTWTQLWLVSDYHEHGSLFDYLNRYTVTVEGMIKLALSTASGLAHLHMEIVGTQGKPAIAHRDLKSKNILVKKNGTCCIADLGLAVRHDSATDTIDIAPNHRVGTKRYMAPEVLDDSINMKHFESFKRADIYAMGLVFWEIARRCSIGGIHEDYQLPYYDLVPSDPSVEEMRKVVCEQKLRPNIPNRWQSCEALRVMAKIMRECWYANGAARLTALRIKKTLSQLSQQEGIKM
row,Structure (SMILES),IC50
1,NC(=O)c1cnc2ccc(/C=C\c3cccc(C(F)(F)F)n3)cn12 [Compound 11],10 nM

# Same assay, conditions: ALK5 25 nM, peptide TGFbR1 0.1 mg/mL, ATP 7 μM, 30° C. 1 hour, ADP-Glo luminescence
row,Structure (SMILES),IC50
1,Cc1cccc(C2=C(c3ccc4ncc(C(N)=O)n4c3)CCCC2)n1 [Compound 16],48 nM
2,Cc1cccc(/C=C(/C(=O)N(C)C)c2ccc3ncc(C(N)=O)n3c2)n1 [Compound 20],34 nM
3,Cc1cccc(/C=C(/C(=O)O)c2ccc3ncc(C(N)=O)n3c2)n1 [Compound 17],616 nM
4,Cc1cccc(/C=C\c2ccc3ncc(C(=O)NC4CC4)n3c2)n1 [Compound 4],17 nM
5,Cc1cccc(/C=C(/C(=O)OC(C)(C)C)c2ccc3ncc(C(N)=O)n3c2)n1 [Compound 17a],6.6 nM
6,Cc1cccc(/C=C\c2ccc3ncc(C(N)=O)nc3c2)n1 [Compound 14],78 nM
7,Cc1cccc(/C=C\c2ccn3ncc(C(N)=O)c3c2)n1 [Compound 13],5.1 nM
